Reference: paper PMC10940605, “Design, synthesis and in vitro anticancer activity of some new lomefloxacin derivatives” (Scientific Reports, 2024)

Legend:
[1] = system: SK-OV-3; assay: NCI-60 SRB screen; type: cell-based; conditions: Homo sapiens; SK-OV-3, 10^–5 Molar; read-out: Percent growth inhibition
[2] = system: UACC-62; assay: NCI-60 SRB screen; type: cell-based; conditions: Homo sapiens; UACC-62, 10^–5 Molar; read-out: Percent growth inhibition
Protocol: (§1) All newly synthesized compounds were selected and screened for anticancer activity against 60 human cancer cell lines representing 9 types of tumors including leukemia, melanoma, lung, colon, CNS, ovarian, renal, prostate, and breast cancers at the National Cancer Institute (NCI), Bethesda, USA. Screening was performed utilizing a single dose (10^−5 M concentration) and cells were incubated for 48 h. The end point was determined using sulforhodamine B (SRB) dye.
(§2) In this study, all the 16 newly synthesized compounds were submitted to the National Cancer Institute (USA) for anticancer evaluation and were selected and evaluated using 60 different human tumor cell lines representing lung, colon, CNS, ovarian, renal, prostate, breast cancers as well as leukemia and melanoma. A single dose (10^–5 Molar) was used for the initial screening for evaluation of anticancer activity. The 60 human cancer cell lines were provided by the national cancer institute biomedical research campus in Frederick, Maryland.
(§3) 60 different human cancer cell lines were utilized to screen the newly synthesized compounds for anticancer activity according to the previously reported standard procedure[24]–[26] as follows: • 96 well microtiter plates were used to inoculate the cells at […] ranging from 4000–5000 cells/well depending on the replication time of individual cell lines. Roswell Park Memorial Institute culture medium (RPMI 1640 medium) containing 2 mM L-glutamine and fetal bovine serum was used to grow the cells at 37 °C, 5% CO2, 95% air and 100% relative humidity for 24 h. • Fixation of cells in two plates of each cell line in situ was done using trichloroacetic acid (TCA). This represented the measurement of cell population at the time of drug addition (Tz). • Dimethyl sulfoxide (DMSO) was used to dissolve the synthesized compounds at 400-fold the desired final maximum concentration and frozen prior to use. This frozen concentrate was melted and diluted to twice the final concentration with complete medium containing 50 µg/mL gentamycin at time of drug addition. • The final compound concentration was obtained by adding 100 µL of the synthesized compounds to the appropriate microtiter wells already containing 100 µL followed by incubation of the plates at 37 °C, 5% CO2, 95% air and 100% relative humidity for 48 h. • Fixation of the cells was achieved by gentle addition of 50 µL of cold 50% (w/v) TCA followed by incubation for 60 min at 4 °C. The supernatant was then discarded and the plates are washed 5 times with tap water and air dried. • Sulphorhodamine B (SRB) solution (100 µL) at 0.4% (w/v) in 1% acetic acid was added to each plate followed by incubation for 10 min at room temperature. The unbound dye was then removed by washing five times with 1% acetic acid and plates were air dried. • Dissolution of the bound stain was done using […] trizma base and the absorbance was read at […] wavelength using an automated plate reader. • The percentage growth inhibition was calculated as follows: Ti-Tz/C-Tz×100forconcentrationswhichTi≥Tz Ti-Tz/Tz×100forconcentrationswhichTi<Tz • Time zero (Tz) • Control growth (C) • Test growth in the presence of drug (Ti)

[3] = system: NCI-H460; assay: NCI-60 SRB screen; type: cell-based; conditions: Homo sapiens; NCI-H460, 10^–5 Molar; read-out: Percent growth inhibition
Protocol: as §1, §2, §3

[4] = system: RXF 393; assay: NCI-60 SRB screen; type: cell-based; conditions: Homo sapiens, 48 h; RXF 393, 10^–5 Molar; read-out: Percent growth inhibition
Protocol: as §1, §2, §3

[5] = system: HOP-62; assay: NCI-60 SRB screen; type: cell-based; conditions: Homo sapiens; HOP-62, 10^–5 Molar; read-out: Percent growth inhibition
Protocol: as §1, §2, §3

[6] = system: UO-31; assay: NCI-60 SRB screen; type: cell-based; conditions: Homo sapiens; UO-31, 10^–5 Molar; read-out: Percent growth inhibition
Protocol: as §1, §2, §3

[7] = system: CAKI-1; assay: NCI-60 SRB screen; type: cell-based; conditions: Homo sapiens; CAKI-1, 10^–5 Molar; read-out: Percent growth inhibition
Protocol: as §1, §2, §3

[8] = system: MCF7; assay: NCI-60 SRB screen; type: cell-based; conditions: Homo sapiens; MCF7, 10^–5 Molar; read-out: Percent growth inhibition
Protocol: as §1, §2, §3

[9] = system: KM12; assay: NCI-60 SRB screen; type: cell-based; conditions: Homo sapiens; KM12, 10^–5 Molar; read-out: Percent growth inhibition
Protocol: as §1, §2, §3

[10] = system: 786-0; assay: NCI-60 SRB screen; type: cell-based; conditions: Homo sapiens; 786-0, 10^–5 Molar; read-out: Percent growth inhibition
Protocol: as §1, §2, §3

[11] = system: SF-268; assay: NCI-60 SRB screen; type: cell-based; conditions: Homo sapiens; SF-268, 10^–5 Molar; read-out: Percent growth inhibition
Protocol: as §1, §2, §3

[12] = system: SF-539; assay: NCI-60 SRB screen; type: cell-based; conditions: Homo sapiens; SF-539, 10^–5 Molar; read-out: Percent growth inhibition
Protocol: as §1, §2, §3

[13] = system: SW-620; assay: NCI-60 SRB screen; type: cell-based; conditions: Homo sapiens; SW-620, 10^–5 Molar; read-out: Percent growth inhibition
Protocol: as §1, §2, §3

[14] = system: A498; assay: NCI-60 SRB screen; type: cell-based; conditions: Homo sapiens; A498, 10^–5 Molar; read-out: Percent growth inhibition
Protocol: as §1, §2, §3

[15] = system: SNB-75; assay: NCI-60 SRB screen; type: cell-based; conditions: Homo sapiens; SNB-75, 10^–5 Molar; read-out: Percent growth inhibition
Protocol: as §1, §2, §3

[16] = system: T-47D; assay: NCI-60 SRB screen; type: cell-based; conditions: Homo sapiens, T47D, 10^–5 Molar, read-out: Percent growth inhibition
Protocol: as §1, §2, §3

[17] = system: NCI-H522; assay: NCI-60 SRB screen; type: cell-based; conditions: Homo sapiens; NCI-H522, 10^–5 Molar; read-out: Percent growth inhibition
Protocol: as §1, §2, §3

[18] = system: NCI-H322M; assay: NCI-60 SRB screen; type: cell-based; conditions: Homo sapiens, 10^–5 Molar, read-out: Percent growth inhibition
Protocol: as §1, §2, §3

[19] = system: MDA-MB-468; assay: NCI-60 SRB screen; type: cell-based; conditions: Homo sapiens; MDA-MB-468, 10^–5 Molar; read-out: Percent growth inhibition
Protocol: as §1, §2, §3

[20] = system: CCRF-CEM; assay: NCI-60 SRB screen; type: cell-based; conditions: Homo sapiens, 10^–5 Molar, read-out: Percent growth inhibition
Protocol: as §1, §2, §3

[21] = system: LOX IMVI; assay: NCI-60 SRB screen; type: cell-based; conditions: Homo sapiens, 10^–5 Molar, read-out: Percent growth inhibition
Protocol: as §1, §2, §3

[22] = system: M14; assay: NCI-60 SRB screen; type: cell-based; conditions: Homo sapiens; M14, 10^–5 Molar; read-out: Percent growth inhibition
Protocol: as §1, §2, §3

[23] = system: MOLT-4; assay: NCI-60 SRB screen; type: cell-based; conditions: Homo sapiens; MOLT-4, 10^–5 Molar; read-out: Percent growth inhibition

SMILES	inhibition at 10 µM [1] [%]	inhibition at 10 µM [2] [%]	inhibition at 10 µM [3] [%]	inhibition at 10 µM [4] [%]	inhibition at 10 µM [5] [%]	inhibition at 10 µM [6] [%]	inhibition at 10 µM [7] [%]	inhibition at 10 µM [8] [%]	inhibition at 10 µM [9] [%]	inhibition at 10 µM [10] [%]	inhibition at 10 µM [11] [%]	inhibition at 10 µM [12] [%]	inhibition at 10 µM [14] [%]	inhibition at 10 µM [15] [%]	inhibition at 10 µM [16] [%]	inhibition at 10 µM [17] [%]	inhibition at 10 µM [18] [%]	inhibition at 10 µM [19] [%]	melting point [°C]	inhibition at 10 µM [21] [%]	further results
CCn1cc(C(=O)O)c(=O)c2cc(F)c(N3CCN(C(=O)c4ccc(Br)cc4)C(C)C3)c(F)c21 (stereo not drawn) [Compound 7b, 7-(4-(4-Bromobenzoyl)-3-methylpiperazin-1-yl)-1-ethyl-6,8-difluoro-4-oxo-1,4-dihydroquinoline-3-carboxylic acid]	1.83	17.5	1.2	6.35	5.56	21.4	13.6	8.87	3.51	0.58	6.79	9.67	13.8	2.37	6.95	10	5.64	3.31	271 to 273		inhibition at 10 µM [13]: 0%
CCn1cc(C(=O)O)c(=O)c2cc(F)c(N3CCN(CC(=O)Nc4ccccc4)C(C)C3)c(F)c21 (stereo not drawn) [Compound 5a, 1-Ethyl-6,8-difluoro-7-(3-methyl-4-(2-oxo-2-(phenylamino)ethyl)piperazin-1-yl)-4-oxo-1,4-dihydroquinoline-3-carboxylic acid]	9.27	21.8	0.79			23.5	13	7.33	0.07	7.47	6.33	0.89	26.6	13.9	4.6	7.5	14.3	7.38	248 to 250	11.5	inhibition at 10 µM [20]: 3.25%
CCn1cc(C(=O)O)c(=O)c2cc(F)c(N3CCN(C(=O)c4ccccc4)C(C)C3)c(F)c21 (stereo not drawn) [Compound 7a, 7-(4-Benzoyl-3-methylpiperazin-1-yl)-1-ethyl-6,8-difluoro-4-oxo-1,4-dihydroquinoline-3-carboxylic acid]		25	4.91	6.68	4.44	28.5	15.4	6.26	1.89	14.7	9.47	10.7	19.1	21.7	18.1	9.08	14.4	4.54	290 to 292	19.1	inhibition at 10 µM [22]: 9.98%; inhibition at 10 µM [20]: 2.26%
CCn1cc(C(=O)O)c(=O)c2cc(F)c(N3CCN(C(=O)c4ccc([N+](=O)[O-])cc4)C(C)C3)c(F)c21 (stereo not drawn) [Compound 7d, 1-Ethyl-6,8-difluoro-7-(3-methyl-4-(4-nitrobenzoyl)piperazin-1-yl)-4-oxo-1,4-dihydroquinoline-3-carboxylic acid]		10.9			7.44	27.2	17.6	5.47	1.24	0.6	7.01	8.54	8.25	13.9	4.73	0.62	12.7	2.79	215 to 217	9.8	
CCn1cc(C(=O)O)c(=O)c2cc(F)c(N3CCN(C(=O)c4ccc(Cl)cc4)C(C)C3)c(F)c21 (stereo not drawn) [Compound 7c, 7-(4-(4-Chlorobenzoyl)-3-methylpiperazin-1-yl)-1-ethyl-6,8-difluoro-4-oxo-1,4-dihydroquinoline-3-carboxylic acid]	2.14	18.9	1.66	0.35	2.13	23.9	14.9	9.09	0.72		7.02	5.06	19.2	9.12	5.3	9.51	7.81	3.92	282 to 284	4	
CCn1cc(C(=O)NN=Cc2ccc(Br)cc2)c(=O)c2cc(F)c(N3CCNC(C)C3)c(F)c21 (stereo not drawn) [Compound 3c, N'-(4-Bromobenzylidene)-1-ethyl-6,8-difluoro-7-(3-methylpiperazin-1-yl)-4-oxo-1,4-dihydroquinoline-3-carbohydrazide]			151	38.8	11.2	31.6	31.5	177	52.1	36.1	37.4	28.6	1.99	14.4	36	21.5	14.2	17.5		178	inhibition at 10 µM [23]: 78%; inhibition at 10 µM [22]: 57.3%; inhibition at 10 µM [20]: 70.3%; inhibition at 10 µM [13]: 174%
